{"source": "patent US9321757B2", "about": "“Heterocyclic compound” (Takeda Pharmaceutical Company Limited, priority 2013, dated 2016)", "key": {"[1]": {"system": "NC1-induced nephritis", "format": "in vivo, rat", "procedure": "8-Week-old female WKY rats (Japan Charles River Laboratories) were used as 7 rats/group. Bovine NC1 (The non-collagenous domain of α3 chain of type IV collagen, Chondrex, inc) was dissolved in phosphate buffer to adjust the concentration to 0.3 mg/mL. The equal amount of complete Freund's adjuvant (H37 Ra, Diffco) was added thereto to give an emulsion. The emulsion (0.2 mL) was inoculated intracutaneously into the rat tail head (the 0 day). The compound was orally administered for 5 weeks (the 0 to 35th day, twice a day). 0.5% Methyl cellulose (5 mL/kg) was orally administered as a control. The urine was collected for 4 hr on the −1st day (Pre value) and the 35th day. The collected urine was centrifuged at 400 G, for 5 min at 4° C., the supernatant was kept at −80° C., and the amounts of creatinine and protein were measured. The body weight was measured on the 0th day and the 35th day. A comparison between the groups was analyzed by Dunnett test, and p≦0.05 was evaluated as a significance level."}, "[2]": {"system": "tumor necrosis factor (TNFα) production in the serum", "test": "R848 Tolerance Test in Rat", "format": "in vivo", "conditions": "Lewis rat serum 1 hr after R848 i.p., mean ± S.E.", "procedure": "6-Week-old male LEW/CrlCrlj (Lewis) rats (Japane Charles River Laboratories) were used as 8 rats/group. R848 (Enzo Life Sciences) was dissolved in dimethyl sulfoxide (500 mM), and the concentration of solution was adjusted to 300 μM with saline, and 1.0 mL thereof was intraperitoneally administered in the rat. The compound was orally administered 1 hr before R848 administration. 0.5% Methyl cellulose (5 mL/kg) was orally administered as a control. The blood was collected from the abdominal aorta 1 hr after R848 administration. The blood was left overnight at 4° C., and the serum was collected by centrifugation. The amount of the tumor necrosis factor (TNFα) production in the serum was measured by […] TNF-alpha Quantikine ELISA Kit (R&D Systems). Shirley-Williams test was used for a dose-dependent manner, and p≦0.05 was evaluated as a significance level."}, "[3]": {"biological_target": "T1, IRAK-4 (Homo sapiens, UniProt Q9NWZ3)", "T1 construct": "purchased Carna Biosciences, Inc", "T1 sequence (Q9NWZ3 1-460)": "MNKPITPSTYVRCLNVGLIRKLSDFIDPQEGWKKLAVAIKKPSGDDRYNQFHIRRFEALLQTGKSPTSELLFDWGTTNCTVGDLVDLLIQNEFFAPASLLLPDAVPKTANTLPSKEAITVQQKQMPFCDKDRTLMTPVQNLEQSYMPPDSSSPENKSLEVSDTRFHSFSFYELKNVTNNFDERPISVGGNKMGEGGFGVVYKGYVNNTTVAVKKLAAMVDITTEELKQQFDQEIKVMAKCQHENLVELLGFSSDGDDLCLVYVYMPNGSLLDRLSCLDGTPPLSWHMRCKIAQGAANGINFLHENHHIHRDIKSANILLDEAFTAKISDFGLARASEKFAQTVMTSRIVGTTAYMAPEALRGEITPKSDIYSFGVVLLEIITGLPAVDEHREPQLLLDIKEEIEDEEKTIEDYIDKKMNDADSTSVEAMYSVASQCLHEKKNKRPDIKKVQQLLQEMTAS", "test": "IRAK-4 Enzyme Inhibition Test (LANCE method)", "format": "biochemical", "conditions": "compound concentration 1 μM; well without enzyme = 100% inhibition; read-out: IRAK4 enzyme inhibitory rate (%) at 1 μM", "procedure": "IRAK-4 enzyme inhibitory activities of test compounds were measured by LANCE method (PerkinElmer). First, a test compound diluted with assay buffer (50 mM HEPES (pH7.5), 10 mM MgCl2, 1 mM EGTA, 2 mM DTT, 0.01% Tween 20, 0.01% BSA) was added to 384-well plate at 2 μL each. Then, IRAK-4 (Carna Biosciences, Inc.) and a fluorescence-labeled peptide substrate (ULight-ACC peptide, PerkinElmer) solution diluted with assay buffer at 240 ng/mL and 37.5 nM, respectively were added at 2 μL each. Then, enzyme reaction was started by adding 2 μL each of ATP solution prepared with assay buffer at 1.5 mM. After the reaction at room temperature for 1 hr, Detection Buffer (PerkinElmer) prepared to be 20 mM EDTA, 1 nM europium-labeled anti-phospho ACC antibody (PerkinElmer) was added at 6 μL each. After standing at room temperature for 1 hr, fluorescence intensity (excitation wavelength 340 nm, fluorescence wavelength 665 nm, delay time 100 microseconds) was measured by a plate reader, Envision (PerkinElmer). The inhibitory activity of each compound was calculated as relative value where fluorescence intensity of a well without enzyme is considered as 100% inhibition."}}, "data": [{"molecule": "Cn1cc(NC(=O)c2coc(-c3ccnc(NCC(F)(F)F)c3)n2)c(N2CCN(CCO)C2=O)n1", "note": "[Example 57, N-(3-(3-(2-hydroxyethyl)-2-oxoimidazolidin-1-yl)-1-methyl-1H-pyrazol-4-yl)-2-(2-((2,2,2-trifluoroethyl)amino)pyridin-4-yl)-1,3-oxazole-4-carboxamide]", "values": [{"measurement": "Proteinuria (mg/mg Cre 4 hr), Pre (−1st day)", "setting": "[1]; WKY rat, 3 mg/kg group, Pre value (−1st day, before immunisation and dosing), mean ± S.E.", "result": "0.32 ± 0.05", "unit": "mg/mg Cre 4 hr"}, {"measurement": "Proteinuria (mg/mg Cre 4 hr), 35th day", "setting": "[1]; WKY rat, 3 mg/kg orally twice a day, 0 to 35th day, mean ± S.E., p ≦ 0.05 vs. Control 31.7 ± 4.26", "result": "18.1 ± 2.43", "unit": "mg/mg Cre 4 hr"}, {"measurement": "Body weight difference from the 0th day on the 35th day (g)", "setting": "[1]; rat, in vivo, po, 3 mg/kg", "result": "+63.7 ± 2.8 g"}, {"measurement": "TNFα production amount", "setting": "[2]; 0.3 mg/kg orally 1 hr before R848, Control 1090 ± 137", "result": "1349 ± 181", "unit": "pg/mL"}, {"measurement": "TNFα production amount", "setting": "[2]; 1 mg/kg orally 1 hr before R848, Control 1090 ± 137", "result": "736 ± 76.2", "unit": "pg/mL"}, {"measurement": "TNFα production amount", "setting": "[2]; 3 mg/kg orally 1 hr before R848, p ≦ 0.05 vs. Control 1090 ± 137", "result": "306 ± 45.9", "unit": "pg/mL"}, {"measurement": "TNFα production amount", "setting": "[2]; 10 mg/kg orally 1 hr before R848, p ≦ 0.05 vs. Control 1090 ± 137", "result": "236 ± 26.8", "unit": "pg/mL"}, {"measurement": "inhibition at 1 µM", "setting": "[3]", "result": 100, "unit": "%"}]}, {"molecule": "Cn1cc(NC(=O)c2coc(-c3ccnc(NCC(F)(F)F)c3)n2)c(N2CCNC2=O)n1", "note": "[Example 58, N-(1-methyl-3-(2-oxoimidazolidin-1-yl)-1H-pyrazol-4-yl)-2-(2-((2,2,2-trifluoroethyl)amino)pyridin-4-yl)-1,3-oxazole-4-carboxamide]", "values": [{"measurement": "TNFα production amount", "setting": "[2]; 0.27 mg/kg orally 1 hr before R848, Control 945 ± 106", "result": "1070 ± 160", "unit": "pg/mL"}, {"measurement": "TNFα production amount", "setting": "[2]; 0.91 mg/kg orally 1 hr before R848, Control 945 ± 106", "result": "804 ± 116", "unit": "pg/mL"}, {"measurement": "TNFα production amount", "setting": "[2]; 2.73 mg/kg orally 1 hr before R848, Control 945 ± 106", "result": "628 ± 31.1", "unit": "pg/mL"}, {"measurement": "TNFα production amount", "setting": "[2]; 9.09 mg/kg orally 1 hr before R848, p ≦ 0.05 vs. Control 945 ± 106", "result": "326 ± 41.1", "unit": "pg/mL"}, {"measurement": "inhibition at 1 µM", "setting": "[3]", "result": 99, "unit": "%"}]}]}
